Data on 21 compounds can be found in patent US20250163057A1, “DCN-1 MODULATING COMPOUNDS AND METHODS OF USE THEREOF” (Cellarity, Inc., priority 2023, published 2025).

Experiment [1] deals with Cullin-3 (CUL3) neddylation. Description: AlphaLISA assay for Cullin-3 (CUL3) neddylation in TF 1 cells. The experiment is classed as cell-based. As to conditions: Homo sapiens, TF-1, 3 h, 3 hours treatment. The procedure, abridged:
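Neddylated CUL3 was quantified by AlphaLISA in lysates of TF 1 cells exposed for 3 h to test compound in IMDM without supplements. Percent inhibition set between vehicle and 1 μM DI-1548 positive control; IC50 derived by Hill-equation fitting of dose-response curves.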
Background: In Alpha technology, singlet oxygen from a donor bead excites a nearby acceptor bead.

Experiment [2] deals with DCN1 (DCUND1) protein PONY domain (Homo sapiens (Human), UniProt Q96GG9). Description: TR-FRET assay, DCN1 binding with FAM-labeled probe. Put shortly: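 Binding was read as the TR-FRET ratio between a FAM-tagged inhibitor probe and Tb-labeled biotinylated E. coli-expressed DCN1 PONY domain, measured 1, 5 and 24 h after compound addition. The two setups used 5 nM protein/20 nM FAM-probe or 0.31 nM protein/900 nM total probe (100 nM labeled), in TritonX buffer with 200 mM NaCl.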
Chain of DCN1 (DCUND1) protein PONY domain (Q96GG9 60-248): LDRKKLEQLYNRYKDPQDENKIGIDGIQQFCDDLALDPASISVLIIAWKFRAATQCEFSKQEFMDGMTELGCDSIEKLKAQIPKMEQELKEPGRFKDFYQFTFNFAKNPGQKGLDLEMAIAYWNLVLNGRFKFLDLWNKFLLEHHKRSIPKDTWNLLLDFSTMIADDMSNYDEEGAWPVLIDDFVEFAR
(TR-FRET usually uses a lanthanide donor and a delayed reading to cut background.)

Setting [3] is: 24 hr after treatment with compound, read-out: TR FRET IC50 24 hr.
Setting [4] is: TR FRET IC50 1 hr (nM), 1 hr after treatment with compound.
Where [5] appears, read: read-out: TR FRET IC50 1 hr, 1 hr after treatment with compound.

Where two headings read alike, the source gives them in different places.

What is called IC50 is the midpoint of a concentration-inhibition curve. As to `CCN1C(=O)[C@H](NC(=O)c2cccc(C(F)(F)F)c2)[C@H](C)c2c(C(=O)N3[C@H](C#N)C[C@H]4C[C@H]43)nn(C3CCOCC3)c21` [Compound I-599], the results for the IC50 in experiment [1], in experiment [2] (setting [3]) and in experiment [2] (setting [4]) were 100 to 1000 nM, 1000 to 3000 nM and 1000 to 3000 nM, respectively.
Consider `CCN1C(=O)[C@@H](NC(=O)c2cccc(C(F)(F)F)c2)[C@@H](C2CC2)c2c(C(=O)N3CCOC[C@@H]3C#N)nn(C3CCOCC3)c21` [Compound I-551], for which the IC50 in experiment [1] lay within 100 to 1000 nM; in experiment [2] (setting [3]) it was 200 to 1000 nM; in experiment [2] (setting [4]), 200 to 1000 nM.
Regarding `CCN1C(=O)[C@@H](NC(=O)c2cccc(C(F)(F)F)c2)[C@@H](c2ccc(F)cc2)c2c(CN(C#N)CCCCN(C)C)nn(-c3ccccc3)c21` (single isomer, unassigned) [Compound I-249, ˜{N}-[(4˜{S},5˜{R})-3-[[cyano-[4-(dimethylamino)butyl]amino]methyl]-7-ethyl-4-(4-fluorophenyl)-6-oxo-1-phenyl-4,5-dihydropyrazolo[3,4-b]pyridine-5-yl]-3-(trifluoromethyl)benzamide], the figures for the IC50 in experiment [1], in experiment [2] (setting [3]) and in experiment [2] (setting [4]) were 100 to 1000 nM, 200 to 1000 nM and 200 to 1000 nM, respectively.
Take `CCN1C(=O)[C@@H](NC(=O)c2cccc(C(F)(F)F)c2)[C@@H](C2CC2)c2c(C(=O)N3CC[C@H]3C#N)nn(-c3ccccc3)c21` [Compound I-561]: the results for the IC50 in experiment [1], in experiment [2] (setting [3]) and in experiment [2] (setting [4]) were not above 100 nM, not above 200 nM and 1000 to 3000 nM, respectively.
As for `CCN1C(=O)[C@@H](NC(=O)c2cccc(C(F)(F)F)c2)[C@@H](c2ccc(F)cc2)c2c(CNC/C=C/C(=O)OC(C)(C)C)nn(-c3ccccc3)c21` [Compound I-635], the IC50 in experiment [1] was 100 to 1000 nM; in experiment [2] (setting [3]) it was not above 200 nM; in experiment [2] (setting [4]), 1000 to 3000 nM.
With `CCN1C(=O)[C@@H](NC(=O)c2cnc(C)cc2Cl)[C@@H](C2CC2)c2c(C(=O)N3[C@H](C#N)C[C@H]4C[C@H]43)nn(C3CCOCC3)c21` [Compound I-506], the values for the IC50 in experiment [1], in experiment [2] (setting [3]) and in experiment [2] (setting [4]) were more than 1000 nM, 1000 to 3000 nM and 1000 to 3000 nM, respectively.
As for `CCN1C(=O)[C@@H](NC(=O)N2CCC[C@H](C(F)(F)F)C2)[C@@H](c2ccc(F)cc2)c2c(C(=O)N3CCC[C@H]3C#N)nn(-c3ccccc3)c21` (single isomer, unassigned) [Compound I-501], the IC50 in experiment [1] was more than 1000 nM; in experiment [2] (setting [3]), 200 to 1000 nM; in experiment [2] (setting [4]), 1000 to 3000 nM.
Turning to `CCN1C(=O)[C@@H](NC(=O)Cc2ccccc2)[C@@H](C2CC2)c2c(C(=O)N3[C@H](C#N)C[C@H]4C[C@H]43)nn(C3CCOCC3)c21` [Compound I-595], the IC50 was more than 1000 nM in experiment [1], 1000 to 3000 nM in experiment [2] (setting [3]) and 1000 to 3000 nM in experiment [2] (setting [4]).
With `CCN1C(=O)[C@@H](NC(=O)c2cccc(C(F)(F)F)c2)[C@@H](C2CC2)c2c(C(=O)N(C)[C@@H](C)C#N)nn(C3CCOCC3)c21` [Compound I-549, (4S,5S)—N—((S)-1-cyanoethyl)-4-cyclopropyl-7-ethyl-N-methyl-6-oxo-1-(tetrahydro-2H-pyran-4-yl)-5-(3-(trifluoromethyl)benzamido)-4,5,6,7-tetrahydro-1H-pyrazolo[3,4-b]pyridine-3-carboxamide], the IC50 in experiment [1] was not above 100 nM; in experiment [2] (setting [3]), not above 200 nM; in experiment [2] (setting [4]), 200 to 1000 nM.
For the compound `CCN1C(=O)[C@@H](NC(=O)c2ccc3snnc3c2)[C@@H](C2CC2)c2c(C(=O)N3[C@H](C#N)C[C@H]4C[C@H]43)nn(C3CCOCC3)c21` [Compound I-706], the results for the IC50 in experiment [1], in experiment [2] (setting [3]) and in experiment [2] (setting [4]) were not above 100 nM, 200 to 1000 nM and 1000 to 3000 nM, respectively.
With `CCN1C(=O)[C@@H](NC(=O)c2nccc(C(F)(F)F)n2)[C@H](c2ccc(F)cc2)c2c(CC(=O)N(C)CC#N)nn(-c3ccccc3)c21` [Compound I-640, N-((4R,5S)-3-(2-((cyanomethyl)(methyl)amino)-2-oxoethyl)-7-ethyl-4-(4-fluorophenyl)-6-oxo-1-phenyl-4,5,6,7-tetrahydro-1H-pyrazolo[3,4-b]pyridin-5-yl)-4-(trifluoromethyl)pyrimidine-2-carboxamide], the figures for the IC50 in experiment [1], in experiment [2] (setting [3]) and in experiment [2] (setting [4]) were 100 to 1000 nM, 1000 to 3000 nM and 1000 to 3000 nM, respectively.
As to `CCN1C(=O)[C@@H](NC(=O)c2cccc(C(F)(F)F)c2)[C@@H](c2ccc(F)cc2)c2c(CNC(=O)/C=C(\C)C(=O)OC)nn(-c3ccccc3)c21` (racemic) [Compound I-150, rac-methyl (E)-4-((((4R,5R)-7-ethyl-4-(4-fluorophenyl)-6-oxo-1-phenyl-5-(3-(trifluoromethyl)benzamido)-4,5,6,7-tetrahydro-1H-pyrazolo[3,4-b]pyridin-3-yl)methyl)amino)-2-methyl-4-oxobut-2-enoate], the IC50 in experiment [1] was more than 1000 nM; in experiment [2] (setting [3]) it was 200 to 1000 nM; in experiment [2] (setting [4]), 1000 to 3000 nM.
Take `CCN1C(=O)[C@@H](NC(=O)c2ccc3[nH]cnc3c2)[C@@H](C2CC2)c2c(C(=O)N3[C@H](C#N)C[C@H]4C[C@H]43)nn(C3CCOCC3)c21` [Compound I-632]: the IC50 was more than 1000 nM in experiment [1], 1000 to 3000 nM in experiment [2] (setting [3]) and 1000 to 3000 nM in experiment [2] (setting [4]).
For `C=C(CN1CCC1)C(=O)NCc1nn(-c2ccccc2)c2c1[C@H](C1CC1)[C@H](NC(=O)c1cccc(C(F)(F)F)c1)C(=O)N2CC` (stereo in doubt) [Compound I-462], the IC50 was not above 100 nM in experiment [1], not above 200 nM in experiment [2] (setting [3]) and not above 200 nM in experiment [2] (setting [5]).
As to `CCN1C(=O)[C@@H](NC(=O)c2cccc(C(F)(F)F)c2)[C@@H](c2ccc(F)cc2)c2c(C(=O)N(C)[C@@H](C#N)CCN(C)C3COC3)nn(C3CCOCC3)c21` [Compound I-654], the IC50 is not above 100 nM in experiment [1], not above 200 nM in experiment [2] (setting [3]) and not above 200 nM in experiment [2] (setting [5]).
As for `CCN1C(=O)[C@@H](NC(=O)c2cccc(C(F)(F)F)c2)[C@@H](c2ccc(F)cc2)c2c(C(=O)N3CC[C@@H]3C#N)nn(-c3ccccc3)c21` [Compound I-570], the figures for the IC50 in experiment [1], in experiment [2] (setting [3]) and in experiment [2] (setting [4]) were 100 to 1000 nM, 200 to 1000 nM and 1000 to 3000 nM, respectively.
For the compound `CCN1C(=O)[C@H](NC(=O)c2cccc(C(F)(F)F)c2)[C@H](c2ccc(F)cc2)c2c(C(=O)N3CCNC[C@@H]3C#N)nn(-c3ccccc3)c21` [Compound I-534], the IC50 was more than 1000 nM in experiment [1], 1000 to 3000 nM in experiment [2] (setting [3]) and 1000 to 3000 nM in experiment [2] (setting [4]).
On to `CCN1C(=O)[C@H](NC(=O)c2cccc(C(F)(F)F)c2)[C@@H](c2ccc(F)cc2)c2c(COCC#N)nn(-c3ccccc3)c21` [Compound I-522], for which the results for the IC50 in experiment [1], in experiment [2] (setting [3]) and in experiment [2] (setting [4]) were more than 1000 nM, 1000 to 3000 nM and 1000 to 3000 nM, respectively.
For `CCN1C(=O)[C@@H](NC(=O)c2ccc3ncoc3c2)[C@@H](C2CC2)c2c(C(=O)N3[C@H](C#N)C[C@H]4C[C@H]43)nn(C3CCOCC3)c21` [Compound I-564], the IC50 in experiment [1] is more than 1000 nM; in experiment [2] (setting [3]), 1000 to 3000 nM; in experiment [2] (setting [4]) it was 1000 to 3000 nM.
As for `CCN1C(=O)[C@@H](NC(=O)c2cccc(C(F)(F)F)c2)[C@@H](C2CC2)c2c(C(=O)N(C)C(C)C#N)nn(C3CC3)c21` (stereo partly drawn) [Compound I-492], the IC50 in experiment [1] was not above 100 nM; in experiment [2] (setting [3]) it was 200 to 1000 nM; in experiment [2] (setting [4]), 200 to 1000 nM.
On to `CCN1C(=O)[C@@H](NC(=O)c2cccc(C(F)(F)F)c2)[C@@H](c2ccc(F)cc2)c2c(C(=O)N3[C@H](C#N)C[C@@H]4C[C@@H]43)nn(-c3ccccc3)c21` [Compound I-450], for which the IC50 fell in the range of 100 to 1000 nM in experiment [1], 1000 to 3000 nM in experiment [2] (setting [3]) and 1000 to 3000 nM in experiment [2] (setting [4]).
